# Results reported in publication PMC8617031, “Development of a BCL-xL and BCL-2 dual degrader with improved anti-leukemic activity,” (Nature Communications, 2021).
# Several values for one entry are separate records, joined by “and”; a condition that tells them apart may be missing. Equal entries are not always repeated. Where two headings read alike, the source gives them in different places.
# Tests used:
# [1] = tested on: Hela cells; assay: Viability (MTS) of Hela cells; type: cell-based, human; details: in % (unit assumed)
# Protocol: Suspension cells were treated 30 min after seeding, whereas adherent cells were allowed to adhere overnight and were then treated. Compound treatments were prepared in complete cell culture medium and 100 µl of 2× treatment-containing medium were added to each well. Complete cell culture medium without treatment was added in control wells, and wells containing medium without cells served as background. The outer wells of the 96-well plate were not used for treatment and were filled with 250 µl of PBS to reduce evaporation of medium from inner wells. Each compound and/or combination was tested at nine different concentrations with three replicates. The cell viability was measured after 72 h by tetrazolium-based MTS assay. MTS reagent (2 mg ml^–1 stock; cat. no. G1111, Promega) was freshly supplemented with phenazine methosulfate (PMS, 0.92 mg ml^–1 stock, cat. no. P9625, Sigma-Aldrich) in 20:1 ratio, and 20 µl of this mixture was added to each control and treatment well. The cells were incubated for 4 h at 37 °C and 5% CO2, and then the absorbance was recorded at 490 nm using Biotek’s Synergy Neo2 multimode plate reader (Biotek). The average absorbance value of background wells was subtracted from absorbance value of each control and treatment well, and percent cell viability ((At/A0) × 100)) was determined in each treatment well, where At is the absorbance value of the treatment well and A0 is the average absorbance value of control wells after background subtraction. The data were expressed as average percentage cell viability and fitted in non-linear regression curves using GraphPad Prism 7 (GraphPad Software, La Jolla, CA, USA).
# [2] = biological target: T1, His-tagged BCL-xL (Homo sapiens, UniProt Q07817); assay: AlphaScreen competitive binary binding, BCL-xL (biotin-BAD peptide)
# T1 construct: purchased Sigma-Aldrich SRP0187
# Summary of the method: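 His-tagged BCL-xL (0.5 nM) with 2 nM biotin-BAD peptide, or BCL-2 (1 nM) with 10 nM biotin-BIM peptide, was incubated 2 h with serially diluted compound in HEPES pH 7.5 buffer containing NaCl, BSA and Tween-80. AlphaScreen signal came from His-acceptor and streptavidin-donor beads at 20 µg/ml each. Ki was fitted by competitive binding using measured Kd per protein–peptide pair.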
# T1 sequence (Q07817 whole entry): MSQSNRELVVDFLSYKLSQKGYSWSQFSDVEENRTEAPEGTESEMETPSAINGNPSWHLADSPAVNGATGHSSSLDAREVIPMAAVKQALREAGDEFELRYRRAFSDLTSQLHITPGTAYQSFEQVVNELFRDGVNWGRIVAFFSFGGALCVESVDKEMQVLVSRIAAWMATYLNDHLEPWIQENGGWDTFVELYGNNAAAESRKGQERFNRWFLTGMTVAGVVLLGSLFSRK
smiles,measurement,setting,value
Cc1ncsc1-c1ccc([C@H](C)NC(=O)[C@@H]2C[C@@H](O)CN2C(=O)[C@@H](NC(=O)CCCCCC(=O)N2CCN(CC[C@H](CSc3ccccc3)Nc3ccc(S(=O)(=O)NC(=O)c4ccc(N5CCN(CC6=C(c7ccc(Cl)cc7)CCC(C)(C)C6)CC5)cc4)cc3S(=O)(=O)C(F)(F)F)CC2)C(C)(C)C)cc1 [DT2216],cell viability normalised to control wells (single replicate),"[1]; MTS absorbance 490, Conc 0.111111 uM",97.9 and 88.8495
same,cell viability normalised to control wells (single replicate),"[1]; MTS absorbance 490, Conc 0.333333 uM",93.1973 and 104.022
same,cell viability normalised to control wells (single replicate),"[1]; MTS absorbance 490, Conc 1 uM",83.5256 and 94.1733
same,cell viability normalised to control wells (single replicate),"[1]; MTS absorbance 490, Conc 3 uM",80.7749
same,IC50,[2]; BCL-xL Rep-1,120 nM
same,Ki,[2]; BCL-xL Rep-1,5.4 nM
same,Alpha signal normalised to Maximum/Minimum (inhibition),"[2]; BCL-xL Rep-1, 0.000305176 uM, 0.000305176 µM",20.1617
same,inhibition at 0.000305176 µM,"[2]; BCL-xL Rep-1, 0.000305176 uM, read-out: Alpha signal normalised to Maximum/Minimum (inhibition)",18.1%
same,Alpha signal normalised to Maximum/Minimum (inhibition),"[2]; BCL-xL Rep-1, 0.0012207 uM, 0.0012207 µM",17.8409
same,inhibition at 0.0012207 µM,"[2]; BCL-xL Rep-1, 0.0012207 uM, read-out: Alpha signal normalised to Maximum/Minimum (inhibition)",21.3%
same,Alpha signal normalised to Maximum/Minimum (inhibition),"[2]; BCL-xL Rep-1, 0.00488281 uM, 0.00488281 µM",23.949
same,inhibition at 0.00488281 µM,"[2]; BCL-xL Rep-1, 0.00488281 uM, read-out: Alpha signal normalised to Maximum/Minimum (inhibition)",23.9%
same,Alpha signal normalised to Maximum/Minimum (inhibition),"[2]; BCL-xL Rep-1, 0.0195312 uM, 0.0195312 µM",38.2381
same,inhibition at 0.0195312 µM,"[2]; BCL-xL Rep-1, 0.0195312 uM, read-out: Alpha signal normalised to Maximum/Minimum (inhibition)",39%
same,Alpha signal normalised to Maximum/Minimum (inhibition),"[2]; BCL-xL Rep-1, 0.078125 uM, 0.078125 µM",43.5761
same,inhibition at 0.078125 µM,"[2]; BCL-xL Rep-1, 0.078125 uM, read-out: Alpha signal normalised to Maximum/Minimum (inhibition)",42.3%
same,Alpha signal normalised to Maximum/Minimum (inhibition),"[2]; BCL-xL Rep-1, 0.3125 uM, 0.3125 µM",88.5079
same,inhibition at 0.3125 µM,"[2]; BCL-xL Rep-1, 0.3125 uM, read-out: Alpha signal normalised to Maximum/Minimum (inhibition)",85.7%
same,Alpha signal normalised to Maximum/Minimum (inhibition),"[2]; BCL-xL Rep-1, 1.25 uM, 1.25 µM",97.7177
same,inhibition at 1.25 µM,"[2]; BCL-xL Rep-1, 1.25 uM, read-out: Alpha signal normalised to Maximum/Minimum (inhibition)",96.9%
same,Alpha signal normalised to Maximum/Minimum (inhibition),"[2]; BCL-xL Rep-1, 5 uM, 5 µM",99.5511
same,inhibition at 5 µM,"[2]; BCL-xL Rep-1, 5 uM, read-out: Alpha signal normalised to Maximum/Minimum (inhibition)",99.5%
same,Alpha signal (raw counts),"[2]; BCL-xL Rep-1, plate row B, 5 uM",27230 and 26015
same,Alpha signal (raw counts),"[2]; BCL-xL Rep-1, plate row C, 1.25 uM",64394 and 52279
same,Alpha signal (raw counts),"[2]; BCL-xL Rep-1, plate row D, 0.3125 uM",224421 and 184214
same,Alpha signal (raw counts),"[2]; BCL-xL Rep-1, plate row E, 0.078125 uM",846185 and 827887
same,Alpha signal (raw counts),"[2]; BCL-xL Rep-1, plate row F, 0.0195312 uM",894074 and 904357
same,Alpha signal (raw counts),"[2]; BCL-xL Rep-1, plate row G, 0.00488281 uM",1110366 and 1109056
same,Alpha signal (raw counts),"[2]; BCL-xL Rep-1, plate row H, 0.0012207 uM",1147150 and 1196559
same,Alpha signal (raw counts),"[2]; BCL-xL Rep-1, plate row I, 0.000305176 uM",1192890 and 1163311
same,Alpha signal (raw counts),"[2]; BCL-xL Rep-1, plate row J, 7.62939e-5 uM",1153277 and 1055277
same,Alpha signal (raw counts),"[2]; BCL-xL Rep-1, plate row K, 1.90735e-5 uM",1140776 and 1328684
same,Alpha signal (raw counts),"[2]; BCL-xL Rep-2, 7.62939e-5 uM",1377571 and 1338961
same,Alpha signal normalised to Maximum/Minimum (inhibition),"[2]; BCL-xL Rep-2, 0.0012207 uM, 0.0012207 µM",12.2985
same,inhibition at 0.0012207 µM,"[2]; BCL-xL Rep-2, 0.0012207 uM, read-out: Alpha signal normalised to Maximum/Minimum (inhibition)",16.2%
same,Alpha signal normalised to Maximum/Minimum (inhibition),"[2]; BCL-xL Rep-2, 0.00488281 uM, 0.00488281 µM",25.1578
same,inhibition at 0.00488281 µM,"[2]; BCL-xL Rep-2, 0.00488281 uM, read-out: Alpha signal normalised to Maximum/Minimum (inhibition)",22.8%
same,Alpha signal normalised to Maximum/Minimum (inhibition),"[2]; BCL-xL Rep-2, 0.0195312 uM, 0.0195312 µM",25.456
same,inhibition at 0.0195312 µM,"[2]; BCL-xL Rep-2, 0.0195312 uM, read-out: Alpha signal normalised to Maximum/Minimum (inhibition)",35.3%
same,Alpha signal normalised to Maximum/Minimum (inhibition),"[2]; BCL-xL Rep-2, 0.078125 uM, 0.078125 µM",57.5037
same,inhibition at 0.078125 µM,"[2]; BCL-xL Rep-2, 0.078125 uM, read-out: Alpha signal normalised to Maximum/Minimum (inhibition)",60.5%
same,Alpha signal normalised to Maximum/Minimum (inhibition),"[2]; BCL-xL Rep-2, 0.3125 uM, 0.3125 µM",86.3518
same,inhibition at 0.3125 µM,"[2]; BCL-xL Rep-2, 0.3125 uM, read-out: Alpha signal normalised to Maximum/Minimum (inhibition)",86.5%
same,Alpha signal normalised to Maximum/Minimum (inhibition),"[2]; BCL-xL Rep-2, 1.25 uM, 1.25 µM",97.814
same,inhibition at 1.25 µM,"[2]; BCL-xL Rep-2, 1.25 uM, read-out: Alpha signal normalised to Maximum/Minimum (inhibition)",98.7%
same,Alpha signal normalised to Maximum/Minimum (inhibition),"[2]; BCL-xL Rep-2, 5 uM, 5 µM",100.647
same,inhibition at 5 µM,"[2]; BCL-xL Rep-2, 5 uM, read-out: Alpha signal normalised to Maximum/Minimum (inhibition)",100%
same,Alpha signal (raw counts),"[2]; BCL-xL Rep-2, plate row B, 5 uM",20174 and 14292
same,Alpha signal (raw counts),"[2]; BCL-xL Rep-2, plate row C, 1.25 uM",40445 and 53326
same,Alpha signal (raw counts),"[2]; BCL-xL Rep-2, plate row D, 0.3125 uM",209031 and 211248
same,Alpha signal (raw counts),"[2]; BCL-xL Rep-2, plate row E, 0.078125 uM",567789 and 608705
same,Alpha signal (raw counts),"[2]; BCL-xL Rep-2, plate row F, 0.0195312 uM",914961 and 1050246
same,Alpha signal (raw counts),"[2]; BCL-xL Rep-2, plate row G, 0.00488281 uM",1086158 and 1054354
same,Alpha signal (raw counts),"[2]; BCL-xL Rep-2, plate row H, 0.0012207 uM",1178429 and 1231525
same,Alpha signal (raw counts),"[2]; BCL-xL Rep-2, plate row I, 0.000305176 uM",1409371 and 1266044
same,Alpha signal (raw counts),"[2]; BCL-xL Rep-2, plate row K, 1.90735e-5 uM",1319490 and 1464517
same,Ki,"[2]; BCL-xL, mean of the two replicate values (line without label)",3.96 nM
same,Ki,"[2]; BCL-xL, second value (line without label below Rep-1, apparently Rep-2)",2.53 nM
